For assay [1], the system named is APP/PS1 mouse. Put plainly: plasma Aβ40/Aβ42 levels in APP/PS1 mouse. The assay is classed as in vivo. On the procedure:
Also, treatment with 25 mg/kg/day of chemical 01 for 5 days in 11.5 month-old APP/PS1 mouse caused a significant 44% reduction in SDS-insoluble Aβ42 levels in plasma and a significant 38% reduction in SDS-insoluble Aβ40 levels in plasma compared to APP/PS1 mouse fed with general chow only.
In further, treatment with 25 mg/kg/d of chemical—01 for 7 months (from 3.5 to 10.5 months) caused a significant 42% reduction in SDS-insoluble Aβ40 levels (data not shown). Also, treatment with 25 mg/kg/d of chemical—01 for 5 days in 11.5 months caused a significant 40% reduction in SDS-insoluble Aβ40/Aβ42 levels in plasma (data not shown).

For assay [2], the system named is C57/BL6 mice. Put plainly: microglia activation in MPTP mouse model of Parkinson's disease (CD11b). The assay is classed as in vivo. As to conditions: 50 mg/kg intraperitoneal, MPTP 40 mg/kg s.c., two days. The method, then:
MPTP (40 mg/kg) was subcutaneously injected into C57/BL6 mice (male/8 week-old). Some of the mice were administered with 50 mg/kg of chemical 01 through intraperitoneal injection 30 minutes before the injection of MPTP everyday. Two days later, brain tissue was extracted and immunostained with CD11b. After reaction, DAB (diaminobenzidine) was used for chromograph, and then the activation degree of microglia (a marker of inflammation in brain disease model) was evaluated with optical microscope (FIG. 14E).

Assay [3] concerns mesencephalic nerve cell cultures. Put plainly: dopaminergic nerve cell death by LPS in mesencephalic cultures ([3H]DA uptake). The class given is cell-based. Conditions: 5 ng/ml LPS; 0-100 uM; 7 days. The method, then: Mesencephalic nerve cell cultures were pre-treated with 5 ng/ml of LPS for 30 minutes to make a cull culture model of Parkinson's disease, and then 0-100 uM of chemical 01 were added. 7 days after administration, [^3H]DA uptake was evaluated to quantify the death of the nerve cell (mean±SEM, n=4 culture well/each group).

Assay [4] concerns G93A mouse. In words: motor performance, onset and survival in G93A mouse (chemical 01). The class given is in vivo. On the procedure:
G93A (Glycine Alanine) mouse having similar pathophysiological characteristics with ALS human patient was used to evaluate therapeutic effect of drug in ALS (amyotrophic lateral sclerosis), one of main degenerative brain diseases. It was analyzed whether treatment with 5 mg/kg/day or 20 mg/kg/day of chemical 01 improved motor performance ability or not.
In PaGE test and Rotarod test, onset and mortality were analyzed for four mice per each group (FIGS. 13C-D). […] In survival ability, G93A mouse fed with chow only, G93A mouse treated with 5 mg/kg/day of chemical 01 and G93A mouse treated with 20 mg/kg/day of chemical 01 survived for 131.57 days, 153.13 days, and 150.73 days, respectively. Treatment with chemical 01 extended survival rate of G93A mouse (FIG. 13D).

The test system of assay [5] is TNF-α. Put plainly: LPS-induced TNF-α production in BV2 cells. The assay is classed as cell-based. Conditions: 100 uM; 1 ug/ml LPS, 4 hours. On the procedure:
Suppressing effects of chemical 01 in BV2 cell lines on production of IL-1β, IL-6 or TNF-α were evaluated. BV2 cells were exposed to 1 ug/ml LPS (inflammation-inducing material) with inclusion of chemical 01 at indicated doses. After 4 hours, supernatant were collected and concentrations of TNF-a were evaluated. In addition, BV2 cells were treated by the same method, and 24 hours later, supernatant were collected and concentrations of IL-1β and IL-6 were evaluated (mean±SEM, n=3). BV2 cells treated with LPS only were used as control.

Assay [6] deals with cerebral cortical cell cultures. Put plainly: nerve cell death by MPP+ in cerebral cortical cell cultures (LDH). The assay is classed as cell-based. Conditions: 50 uM MPP+. On the procedure: Cerebral cortical cell cultures (DIV 13˜15) were continuously exposed to 50 uM MPP+ alone or with inclusion of 0.03-3 uM of chemical 01. After 24 hours, activity of LDH released outside cell was evaluated to quantify death of nerve cell (mean±SEM, n=4 culture well/each group).

The test system of assay [7] is TNF-a. Put plainly: LPS-induced TNF-a in mesencephalic cultures. Conditions: 5 ng/ml LPS; 0-100 uM; 3 hours. The class given is cell-based. The method, then:
(§1) Mesencephalic nerve cell cultures were pre-treated with 5 ng/ml of LPS for 30 minutes to make a cull culture model of Parkinson's disease, and then 0-100 uM of chemical 01 were added. The level of NO was evaluated 24 hours after administration of chemical 01, and the level of TNF-a was evaluated 3 hours after administration of chemical 01 (mean±SEM, n=7-12 culture well/each group).

Assay [8] deals with APPswe/PS1deltaE9 double transgenic mice. In words: Morris water maze in APPswe/PS1deltaE9 double transgenic mice. The class given is in vivo, mouse. As to conditions: 25 mg/kg/day chemical 01 or 62.5 mg/kg/day ibuprofen for 14.5 months (3~17.5 months). On the procedure: After administration of 14.5 months, the cognitive function was analyzed by Morris water maze test like example 10-3-1 (mean±SEM, n=3-5).
17.5 month-old APPswe/PS1deltaE9 double transgenic mice were fed chow alone (saline only), or containing 25 mg/kg/day of chemical—01, for […] (3˜17.5 month).
The cognitive function was analyzed by Morris water maze test. Mice ware trained to perform a hidden platform task in the Morris water maze. The latency to find the platform was recorded for each mouse.

The subject of assay [9] is NO. Put plainly: LPS-induced NO in mesencephalic cultures. The assay is classed as cell-based. Conditions: 5 ng/ml LPS; 0-100 uM; 24 hours. On the procedure: as §1
Assay [10] concerns Fas, FADD, cleaved caspase-8 and caspase-3. In words: Fas pathway in lumbar spinal cord of G93A transgenic mice (Western blot). As to conditions: at 12 weeks of age; 2-hydroxy-TTBA 30 mg/kg/d, Li^+ 200 mg/kg/d in the diet. (Immunoblotting shows a protein as a band on a membrane.)
Description: G93A transgenic mice received oral administration of 2-hydroxy-TTBA (30 mg/kg/d) in the diet from 8 weeks of age.
The subject of assay [11] is G93A transgenic mice. The assay is classed as in vivo, mouse. On the procedure:
Animals were daily fed with 2-hydroxy TTBA (30 mg/kg/d), 0.2% lithium carbonate (200 mg/kg/d, Li), or a combination of both (2-hydroxy TTBA+Li) from 8 weeks of age in diet.
Animals were daily fed with 2-hydroxy TTBA (30 mg/kg/d), 0.2% lithium carbonate (Li), or a combination of both (2-hydroxy TTBA+Li) from 8 weeks of age in diet.
C & D: (C) Bright-field photomicrographs of cresyl violet-stained ventral horn sections from the wild type (a), or G93AA transgenic mice treated with vehicle (b), or with a combination of 2-hydroxy TTBA+Li (c) at 16 weeks of age.

The mark [12] stands for this setting: 25 mg/kg/day for 5 days in 11.5 month-old APP/PS1 mouse.
The mark [13] stands for this setting: 2-hydroxy TTBA 30 mg/kg/d, 0.2% lithium carbonate, or both, in diet from 8 weeks of age, n=13.

Molecules are shown by their SMILES. “And” between values parts separate entries of the source, which are not always exact repeats. Identical values can stand only once.

In the case of `O=C(O)c1cc(NCCc2ccc(C(F)(F)F)cc2)ccc1O` [chemical 01, 2-Hydroxy-5-[2-(4-trifluoromethyl-phenyl)-ethylamino]-benzoic acid], the “reduction in SDS-insoluble Aβ40/Aβ42 levels in plasma” value in assay [1] (25 mg/kg/d for 5 days in 11.5 months) worked out at 40%. Also, the “reduction in SDS-insoluble Aβ40 levels in plasma” value in assay [1] (setting [12]) stood at 38%. In assay [1] (setting [12]), the “reduction in SDS-insoluble Aβ42 levels in plasma” value came out at 44%. Moreover, the “activity of microglia caused by MPTP” value in assay [2] is given as “decreased”. The “dopaminergic nerve cell death caused by LPS” value in [3] was “dose-dependent manner”. Also, the survival in assay [4] (5 mg/kg/day) was 153.13 days; in assay [4] (20 mg/kg/day), 150.73 days. This molecule showed an onset in [4] (5 mg/kg/day or 20 mg/kg/day) of 125.67 days. Further, the “motor performance versus control fed with general chow only (Rotarod, PaGE)” value in assay [4] (5 or 20 mg/kg/day in chow, from 14 weeks to 17 weeks) is “better motor performance”. For the same molecule, in [5], the “decrease of TNF-α released into media” value is about 70%. The IC50 in [6] (24 hours, LDH, read-out: IC50, nerve cell death caused by MPP+) was found to be 57 nM. The “nerve cell death caused by MPP+, in words” value in assay [6] (0.03-3 uM) is listed as “dose-dependent manner”. The “increase of TNF-a caused by LPS” value in assay [7] is “dose-dependent manner”. Besides, in assay [8], the “escape latency / cognitive function (Morris water maze)” value was “shorter”. Also, in assay [9], the “increase of NO caused by LPS” value is listed as “dose-dependent manner”.

Consider `O=C(O)c1cc(NCc2c(F)c(F)c(C(F)(F)F)c(F)c2F)ccc1O` [2-Hydroxy-TTBA, 2-hydroxy-5-(2,3,5,6-tetrafluoro-4-trifluoromethyl-benzylamino)-benzoic acid], for which the “levels of Fas, FADD, cleaved caspase-8 and caspase-3 (Fas pathway) in lumbar spinal cord” value in [10] is reported as “slightly attenuated”. Besides, in [11] (setting [13]), the “Mortality (survival)” value is 143.8 days and 143.8^a ± 2.83 days; the “Onset from PaGE” value is 114.1 days and 114.1^a ± 2.02 days; the “Onset from Rotarod” value is 112.3 days and 112.3^a ± 2.89 days. In addition, the “weight loss, % of the wild type” value in assay [11] (G93A mice at 18 weeks of age, oral administration in diet) is 41%. In addition, in assay [11] (G93A mice, drug in diet), the “extension reflex, motor strength, and coordination” value is “improved”. Further, in assay [11] (at 16 weeks of age), the “degeneration (loss) of ventral motor neurons in lumbar spinal cord” value came to 57%. Besides, the “motor performance versus vehicle-treated control” value in assay [11] (from 11 weeks to 18 weeks, in the diet) is given as “better motor performance”.

The IC50 is the concentration that inhibits the measured activity by half.

The record behind these values is US20120301551A1, “COMPOUNDS AND COMPOSITIONS FOR TREATING NEURONAL DEATH OR NEUROLOGICAL DYSFUNCTION” (Neurotech Pharmaceuticals Co., Ltd., priority 2005, published 2012).
